This is an account of results in patent publication US9938261B2, “Heterocyclic compounds and methods of use thereof” (AMBIT BIOSCIENCES CORPORATION, priority 2011, dated 2018).

The target in one experiment is CSF1R (Homo sapiens, UniProt P07333). Briefly: Competition binding assay, CSF1R Kd. On the set-up: made in house. As to conditions: competition binding. The method, boiled down: (§1)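 Kinases as T7-phage fusions or HEK-293-expressed DNA-tagged constructs competed against immobilized biotinylated ligand on streptavidin beads, 1 h at room temperature in binding buffer. Bound kinase eluted and quantified by qPCR; Kd from eleven-point threefold dilution series.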
Sequence of CSF1R (P07333 20-972): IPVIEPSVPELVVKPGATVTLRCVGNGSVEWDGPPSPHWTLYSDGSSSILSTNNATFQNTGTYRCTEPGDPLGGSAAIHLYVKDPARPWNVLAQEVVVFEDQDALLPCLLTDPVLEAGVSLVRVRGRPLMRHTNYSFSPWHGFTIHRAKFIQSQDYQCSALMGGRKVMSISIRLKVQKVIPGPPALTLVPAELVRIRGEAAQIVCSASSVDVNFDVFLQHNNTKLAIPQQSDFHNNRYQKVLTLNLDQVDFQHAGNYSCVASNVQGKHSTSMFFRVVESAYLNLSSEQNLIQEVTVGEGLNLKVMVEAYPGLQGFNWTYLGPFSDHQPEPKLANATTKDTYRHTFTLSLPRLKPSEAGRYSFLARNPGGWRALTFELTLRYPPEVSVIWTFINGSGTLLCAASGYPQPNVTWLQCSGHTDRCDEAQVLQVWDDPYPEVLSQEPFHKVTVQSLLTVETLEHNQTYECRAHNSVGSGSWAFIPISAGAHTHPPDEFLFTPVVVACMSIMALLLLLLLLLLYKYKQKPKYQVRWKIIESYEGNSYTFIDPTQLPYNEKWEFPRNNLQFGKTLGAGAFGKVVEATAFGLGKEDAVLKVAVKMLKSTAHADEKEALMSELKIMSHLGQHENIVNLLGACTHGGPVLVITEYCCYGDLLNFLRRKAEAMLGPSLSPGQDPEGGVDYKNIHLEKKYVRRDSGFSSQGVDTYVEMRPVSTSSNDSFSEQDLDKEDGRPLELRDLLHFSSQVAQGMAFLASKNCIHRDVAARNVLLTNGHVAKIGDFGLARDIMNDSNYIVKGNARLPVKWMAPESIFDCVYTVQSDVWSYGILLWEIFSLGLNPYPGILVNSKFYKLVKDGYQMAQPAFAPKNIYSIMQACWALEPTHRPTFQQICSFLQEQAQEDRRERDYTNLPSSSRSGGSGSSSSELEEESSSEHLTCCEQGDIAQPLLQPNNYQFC

For experiment [1], the target named is kinase panel containing either 386 or 392 distinct kinases. Briefly: Kinase selectivity score S10 from competition binding panel. As to conditions: 10 μM, panel of 386 or 392 distinct kinases. A digest of the protocol: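 Compounds at 10 μM competed against immobilised affinity ligands for T7 phage-fused or HEK-293-expressed DNA-tagged kinases, 1 h at room temperature; bound kinase eluted and quantified by qPCR. S10 = fraction of distinct non-mutant kinases with percent of DMSO control below 10.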

A further experiment has as its system M-NFS-60 cells. In words: M-NFS-60 cell proliferation assay (Alamar Blue). As to conditions: Mus musculus; M-NFS-60 cell proliferation; read-out: CSF1R M-NFS-60 CTB:IC50. The class given is cell-based, mouse. A digest of the protocol: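 Mouse M-NFS-60 cells growing on 20 ng/mL M-CSF in RPMI/10% FBS were exposed to compounds (9 half-log concentrations, 0.5% DMSO) for 72 h at 37 °C. Viability read by Alamar Blue fluorescence (ex 560/em 590 nm, 3 h). IC50 = 50% proliferation inhibition versus control, mean of duplicates.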
A general note: Alamar Blue is a resazurin reagent that responds to reducing activity.

For a further experiment, the target named is T1, PDGFRβ (Homo sapiens, UniProt P09619).
T1 construct: made in house
T1 sequence (P09619 33-1106): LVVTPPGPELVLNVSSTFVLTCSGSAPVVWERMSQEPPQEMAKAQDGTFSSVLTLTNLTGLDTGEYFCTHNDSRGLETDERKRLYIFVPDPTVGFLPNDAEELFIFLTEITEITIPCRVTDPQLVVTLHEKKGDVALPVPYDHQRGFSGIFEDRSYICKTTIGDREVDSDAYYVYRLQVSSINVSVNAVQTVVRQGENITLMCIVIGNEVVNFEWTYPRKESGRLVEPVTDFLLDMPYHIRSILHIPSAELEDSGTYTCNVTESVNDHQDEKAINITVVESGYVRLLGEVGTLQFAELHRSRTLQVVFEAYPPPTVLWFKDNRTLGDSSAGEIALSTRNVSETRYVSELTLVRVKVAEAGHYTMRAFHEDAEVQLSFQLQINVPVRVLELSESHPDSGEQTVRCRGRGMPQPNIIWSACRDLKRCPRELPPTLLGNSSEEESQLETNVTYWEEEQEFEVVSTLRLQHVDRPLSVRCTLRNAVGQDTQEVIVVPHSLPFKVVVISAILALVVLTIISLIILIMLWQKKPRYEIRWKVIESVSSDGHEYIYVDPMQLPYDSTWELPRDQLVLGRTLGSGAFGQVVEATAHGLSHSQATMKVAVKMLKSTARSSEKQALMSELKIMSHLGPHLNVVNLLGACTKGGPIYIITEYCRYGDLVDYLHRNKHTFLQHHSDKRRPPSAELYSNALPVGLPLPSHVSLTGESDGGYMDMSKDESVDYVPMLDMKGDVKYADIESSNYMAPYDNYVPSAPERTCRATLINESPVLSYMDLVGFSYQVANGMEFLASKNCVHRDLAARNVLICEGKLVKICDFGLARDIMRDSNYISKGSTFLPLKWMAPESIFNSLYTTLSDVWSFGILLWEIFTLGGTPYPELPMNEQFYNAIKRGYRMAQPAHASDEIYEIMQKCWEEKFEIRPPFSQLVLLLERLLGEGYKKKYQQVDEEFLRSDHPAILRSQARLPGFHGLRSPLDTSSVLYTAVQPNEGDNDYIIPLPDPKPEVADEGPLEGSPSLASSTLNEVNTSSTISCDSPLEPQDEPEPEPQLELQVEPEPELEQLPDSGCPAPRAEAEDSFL
Briefly: Competition binding assay, PDGFRβ Kd. As to conditions: competition binding. A digest of the protocol:
as §1

A further experiment addresses T2, KIT (Homo sapiens, UniProt P10721).
T2 construct: made in house
Briefly: Competition binding assay, KIT Kd. As to conditions: competition binding. A digest of the protocol:
as §1

Molecules are shown by their SMILES. Bounds are passed on as bounds.

T2 sequence (P10721 26-976): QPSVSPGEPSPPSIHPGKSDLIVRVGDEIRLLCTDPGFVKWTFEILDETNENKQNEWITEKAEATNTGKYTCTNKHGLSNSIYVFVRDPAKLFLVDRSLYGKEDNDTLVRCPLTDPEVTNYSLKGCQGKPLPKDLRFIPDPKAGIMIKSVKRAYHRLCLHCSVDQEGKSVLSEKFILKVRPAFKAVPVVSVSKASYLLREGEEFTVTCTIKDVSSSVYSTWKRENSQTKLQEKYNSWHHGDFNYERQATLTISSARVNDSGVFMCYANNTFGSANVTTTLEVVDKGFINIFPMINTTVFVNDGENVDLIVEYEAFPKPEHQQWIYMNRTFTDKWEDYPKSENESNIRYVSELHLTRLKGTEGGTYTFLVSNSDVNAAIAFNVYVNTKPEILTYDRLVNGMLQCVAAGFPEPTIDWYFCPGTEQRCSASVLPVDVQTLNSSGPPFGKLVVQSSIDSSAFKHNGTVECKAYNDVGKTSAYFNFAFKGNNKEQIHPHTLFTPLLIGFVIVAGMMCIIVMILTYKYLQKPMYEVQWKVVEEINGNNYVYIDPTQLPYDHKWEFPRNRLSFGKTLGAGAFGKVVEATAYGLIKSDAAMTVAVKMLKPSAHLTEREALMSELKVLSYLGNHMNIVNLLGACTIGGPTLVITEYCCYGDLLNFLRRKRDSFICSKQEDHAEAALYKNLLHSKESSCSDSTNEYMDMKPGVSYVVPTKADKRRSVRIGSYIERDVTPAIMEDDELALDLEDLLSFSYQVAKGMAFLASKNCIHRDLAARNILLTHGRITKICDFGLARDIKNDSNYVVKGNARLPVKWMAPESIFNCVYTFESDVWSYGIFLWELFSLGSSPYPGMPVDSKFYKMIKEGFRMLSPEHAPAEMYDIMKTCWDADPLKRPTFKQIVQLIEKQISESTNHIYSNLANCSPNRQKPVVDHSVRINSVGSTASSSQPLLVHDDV

Regarding `O[C@@H]1CCCC[C@H]1Nc1nc2ccc(Cn3cnc4cc(Cl)c(Cl)nc43)cc2s1` [Example 137, (1R,2R)-2-((6-((5,6-dichloro-3H-imidazo[4,5-b]pyridin-3-yl)methyl)benzo[d]thiazol-2-yl)amino)cyclohexanol], the figures for the Kd on CSF1R, on PDGFRβ and at KIT were ≤ 5 nM, ≤ 50 nM and ≤ 100 nM, respectively. Moreover, the “Kinase specificity S(10)” value in experiment [1] is listed as “A (A≤0.01)”. Further, the IC50 with M-NFS-60 cells is ≤ 50 nM.

For the molecule `CCOc1ccc2c(c1)ncn2Cc1ccc2nc(N[C@@H]3CCCC[C@H]3O)sc2c1` [Example 138, (1R,2R)-2-((6-((5-ethoxy-1H-benzo[d]imidazol-1-yl)methyl)benzo[d]thiazol-2-yl)amino)cyclohexanol], the Kd is ≤ 5 nM at CSF1R, ≤ 50 nM on PDGFRβ and ≤ 100 nM at KIT. Besides, in experiment [1], the “Kinase specificity S(10)” value is recorded as “A (A≤0.01)”. Moreover, the IC50 in the experiment on M-NFS-60 cells is ≤ 50 nM.

`N#Cc1cc2ncn(Cc3ccc4nc(N[C@@H]5CCCC[C@H]5O)sc4c3)c2nc1C#N` [Example 139, 3-((2-(((1R,2R)-2-hydroxycyclohexyl)amino)benzo[d]thiazol-6-yl)methyl)-3H-imidazo[4,5-b]pyridine-5,6-dicarbonitrile]: the Kd on CSF1R is 20 to 50 nM; on PDGFRβ, 50 to 500 nM; on KIT, 100 to 500 nM. Besides, the “Kinase specificity S(10)” value in experiment [1] is “A (A≤0.01)”. The IC50 with M-NFS-60 cells was in the range of 400 to 1500 nM.

As for `N#Cc1cnc2c(c1)ncn2Cc1ccc2nc(N[C@@H]3CCCC[C@H]3CO)sc2c1` [Example 140, 3-((2-(((1R,2R)-2-(hydroxymethyl)cyclohexyl)amino)benzo[d]thiazol-6-yl)methyl)-3H-imidazo[4,5-b]pyridine-6-carbonitrile], the Kd lay within 5 to 20 nM on CSF1R, 50 to 500 nM on PDGFRβ and 500 to 2000 nM at KIT. In addition, the “Kinase specificity S(10)” value in experiment [1] was “A (A≤0.01)”. The IC50 in the experiment on M-NFS-60 cells lay within 400 to 1500 nM.

Consider `O[C@@H]1CCCC[C@H]1Nc1nc2ccc(Cn3cnc4cc(-n5cccn5)cnc43)cc2s1` [Example 141, (1R,2R)-2-((6-((6-(1H-pyrazol-1-yl)-3H-imidazo[4,5-b]pyridine-3-yl)methyl)benzo[d]thiazol-2-yl)amino)cyclohexanol], for which the Kd was ≤ 5 nM at CSF1R, ≤ 50 nM on PDGFRβ and ≤ 100 nM on KIT. Besides, the “Kinase specificity S(10)” value in experiment [1] is “B (0.01<B≤0.02)”. Further, in the experiment on M-NFS-60 cells, the IC50 is ≤ 50 nM.

With `O[C@@H]1CCCC[C@H]1Nc1nc2ccc(Cc3cnc4cccnn34)cc2o1` [Example 142, (1R,2R)-2-((6-(imidazo[1,2-b]pyridazin-3-ylmethyl)benzo[d]oxazol-2-yl)amino)cyclohexanol], the results for the Kd on CSF1R, on PDGFRβ and at KIT were ≤ 5 nM, ≤ 50 nM and ≤ 100 nM, respectively. The “Kinase specificity S(10)” value in experiment [1] was “C (C>0.02)”. In the experiment with M-NFS-60 cells, the IC50 fell in the range of 50 to 400 nM.

As to `CNC(=O)c1ccc2ncc(Cc3ccc4nc(N[C@@H]5CCCC[C@H]5O)sc4c3)n2n1` [Example 143, 3-((2-(((1R,2R)-2-hydroxycyclohexyl)amino)benzo[d]thiazol-6-yl)methyl)-N-methylimidazo[1,2-b]pyridazine-6-carboxamide], the figures for the Kd on CSF1R, at PDGFRβ and at KIT were 5 to 20 nM, 500 to 2000 nM and 500 to 2000 nM, respectively. In experiment [1], the “Kinase specificity S(10)” value was “B (0.01<B≤0.02)”. The IC50 in the experiment on M-NFS-60 cells lay in the range of 400 to 1500 nM.

As for `OCc1ccc2ncc(Cc3ccc4nc(N[C@@H]5CCCC[C@H]5O)sc4c3)n2n1` [Example 144, (1R,2R)-2-((6-((6-(hydroxymethyl)imidazo[1,2-b]pyridazin-3-yl)methyl)benzo[d]thiazol-2-yl)amino)cyclohexanol], the Kd was ≤ 5 nM on CSF1R, 50 to 500 nM on PDGFRβ and 100 to 500 nM at KIT. In experiment [1], the “Kinase specificity S(10)” value is “B (0.01<B≤0.02)”. Moreover, the IC50 in the experiment on M-NFS-60 cells was in the range of 50 to 400 nM.

Turning to `O[C@@H]1CCCC[C@H]1Nc1nc2ccc(Cn3cnc4cc(-n5cncn5)cnc43)cc2s1` [Example 145, (1R,2R)-2-((6-((6-(1H-1,2,4-triazol-1-yl)-3H-imidazo[4,5-b]pyridin-3-yl)methyl)benzo[d]thiazol-2-yl)amino)cyclohexanol], the results for the Kd on CSF1R, on PDGFRβ and at KIT were ≤ 5 nM, ≤ 50 nM and 100 to 500 nM, respectively. For the same molecule, in experiment [1], the “Kinase specificity S(10)” value is given as “A (A≤0.01)”. For the same molecule, in the experiment on M-NFS-60 cells, the IC50 lay within 50 to 400 nM.

As for `O[C@@H]1CCCC[C@H]1Nc1nc2ccc(Cn3cnc4cc(I)cnc43)cc2s1` [Example 146, (1R,2R)-2-((6-((6-iodo-3H-imidazo[4,5-b]pyridin-3-yl)methyl)benzo[d]thiazol-2-yl)amino)cyclohexanol], the Kd is 5 to 20 nM at CSF1R, ≤ 50 nM on PDGFRβ and ≤ 100 nM on KIT. Also, the “Kinase specificity S(10)” value in experiment [1] is recorded as “B (0.01<B≤0.02)”. In addition, in the experiment on M-NFS-60 cells, the IC50 fell in the range of 50 to 400 nM.

As for `Oc1ccc2c(c1)ncn2Cc1ccc2nc(N[C@@H]3CCCC[C@H]3O)sc2c1` [Example 147, 1-((2-(((1R,2R)-2-hydroxycyclohexyl)amino)benzo[d]thiazol-6-yl)methyl)-1H-benzo[d]imidazol-5-ol], the Kd on CSF1R was ≤ 5 nM; on PDGFRβ, ≤ 50 nM; at KIT it was ≤ 100 nM. In addition, the “Kinase specificity S(10)” value in experiment [1] is given as “A (A≤0.01)”. In addition, the IC50 in the experiment on M-NFS-60 cells was 50 to 400 nM.

In the case of `O[C@@H]1CCCC[C@H]1Nc1nc2ccc(Cn3cnc4cc(F)cc(F)c43)cc2s1` [Example 148, (1R,2R)-2-((6-((5,7-difluoro-1H-benzo[d]imidazol-1-yl)methyl)benzo[d]thiazol-2-yl)amino)cyclohexanol], the Kd on CSF1R was ≤ 5 nM; at PDGFRβ it was 50 to 500 nM; on KIT, ≤ 100 nM. Further, the “Kinase specificity S(10)” value in experiment [1] is “A (A≤0.01)”. The IC50 with M-NFS-60 cells fell in the range of 50 to 400 nM.

In the case of `O[C@@H]1CCCC[C@H]1Nc1nc2ccc(Cn3cnc4cc(OC(F)(F)F)ccc43)cc2s1` [Example 149, (1R,2R)-2-((6-((5-(trifluoromethoxy)-1H-benzo[d]imidazol-1-yl)methyl)benzo[d]thiazol-2-yl)amino)cyclohexanol], the Kd on CSF1R was 5 to 20 nM; on PDGFRβ, ≤ 50 nM; on KIT, 100 to 500 nM. Also, in experiment [1], the “Kinase specificity S(10)” value is listed as “A (A≤0.01)”. The IC50 in the experiment with M-NFS-60 cells fell in the range of 50 to 400 nM.

Turning to `COc1ccc2ncc(Cc3ccc4nc(N[C@@H]5CCCC[C@H]5O)sc4c3)n2n1` [Example 150, (1R,2R)-2-((6-((6-methoxyimidazo[1,2-b]pyridazin-3-yl)methyl)benzo[d]thiazol-2-yl)amino)cyclohexanol], the Kd on CSF1R is ≤ 5 nM; at PDGFRβ, 50 to 500 nM; at KIT it was ≤ 100 nM. The “Kinase specificity S(10)” value in experiment [1] is reported as “B (0.01<B≤0.02)”. Besides, in the experiment with M-NFS-60 cells, the IC50 is 50 to 400 nM.

As for `COc1ccc2c(c1)ncn2Cc1ccc2nc(N[C@@H]3CCCC[C@H]3O)oc2c1` [Example 151, (1R,2R)-2-((6-((5-methoxy-1H-benzo[d]imidazol-1-yl)methyl)benzo[d]oxazol-2-yl)amino)cyclohexanol], the figures for the equilibrium dissociation constant (Kd) on CSF1R, at PDGFRβ and at KIT were 5 to 20 nM, ≤ 50 nM and ≤ 100 nM, respectively. Also, in experiment [1], the “Kinase specificity S(10)” value is reported as “B (0.01<B≤0.02)”. Moreover, in the experiment on M-NFS-60 cells, the IC50 was in the range of 50 to 400 nM.

In the case of `COc1ccc2ncn(Cc3ccc4nc(N[C@@H]5CCCC[C@H]5O)oc4c3)c2c1` [Example 152, (1R,2R)-2-((6-((6-methoxy-1H-benzo[d]imidazol-1-yl)methyl)benzo[d]oxazol-2-yl)amino)cyclohexanol], the Kd was 5 to 20 nM at CSF1R, 50 to 500 nM at PDGFRβ and ≤ 100 nM on KIT. Also, in experiment [1], the “Kinase specificity S(10)” value is on record as “B (0.01<B≤0.02)”. For the same molecule, in the experiment on M-NFS-60 cells, the IC50 is 50 to 400 nM.

As to `COCCOc1ccn2c(Cc3ccc4nc(N[C@@H]5CCCC[C@H]5O)sc4c3)cnc2c1` [Example 153, (1R,2R)-2-((6-((7-(2-methoxyethoxy)imidazo[1,2-a]pyridin-3-yl)methyl)benzo[d]thiazol-2-yl)amino)cyclohexanol], the Kd is 5 to 20 nM on CSF1R, 50 to 500 nM at PDGFRβ and 500 to 2000 nM at KIT. The “Kinase specificity S(10)” value in experiment [1] is reported as “A (A≤0.01)”. In the experiment with M-NFS-60 cells, the IC50 was 50 to 400 nM.

As for `O[C@@H]1CCCC[C@H]1Nc1nc2cc(F)c(Cn3cnc4cccnc43)cc2s1` [Example 154, (1R,2R)-2-((6-((3H-imidazo[4,5-b]pyridin-3-yl)methyl)-5-fluorobenzo[d]thiazol-2-yl)amino)cyclohexanol], the Kd at CSF1R lay in the range of 5 to 20 nM; on PDGFRβ it was 500 to 2000 nM; at KIT it was 500 to 2000 nM. Moreover, the “Kinase specificity S(10)” value in experiment [1] is recorded as “A (A≤0.01)”. Besides, the IC50 in the experiment with M-NFS-60 cells was 50 to 400 nM.

With `O[C@@H]1CCCC[C@H]1Nc1nc2ccc(Cc3cnc4ccc(N5CCOCC5)nn34)cc2s1` [Example 155, (1R,2R)-2-((6-((6-morpholinoimidazo[1,2-b]pyridazin-3-yl)methyl)benzo[d]thiazol-2-yl)amino)cyclohexanol], the Kd on CSF1R is ≤ 5 nM; at PDGFRβ, 50 to 500 nM; on KIT, ≤ 100 nM. Also, the “Kinase specificity S(10)” value in experiment [1] was “B (0.01<B≤0.02)”. The IC50 with M-NFS-60 cells was 50 to 400 nM.

In general, Kd refers to a measure of binding affinity in units of concentration. Low readings indicate tighter binding, high ones weaker binding. In general, IC50 refers to the concentration at which inhibition is half-maximal.
